In the NIST ThermoML archive (doi:10.1021/je201014c):

Settings: 101.33 kPa, Liquid; for viscosity: Capillary tube (Ostwald / Ubbelohde) method; for mass density: Vibrating tube method

CN(C)C=O [dimethylformamide]
Settings	mass density [kg/m3]	viscosity [mPa·s]
283.15 K	958.096	1.016
288.15 K	953.346	0.9545
293.15 K	948.584	0.8985
298.15 K	943.817	0.8455
303.15 K	939.042	0.799
308.15 K	934.255	0.7553
313.15 K	929.458	0.7172
318.15 K	924.65	0.6826
